Test results taken from patent US5246935A, “Piperazinyl derivatives and methods of treating central nervous system ailments relating to the 5-HT2 receptor system” (Novo Nordisk A/S, priority 1990, dated 1993).

Test system: acetic acid-induced writhings in mice
Assay: Antagonism of Acetic Acid-Induced Writhings In Mice
Type: in vivo, mouse (NMRI)
Settings: Mus musculus, sc; s.c. 30 min before acetic acid 0.5 per cent i.p.; 50 per cent protection
Protocol: Antagonism of Acetic Acid-Induced Writhings In Mice
In mice i.p. injection of acetic acid induces a writhing syndrome which is antagonized by analgesics (Siegmund et al., 1957; Eckhardt et al., 1957).
Acetic acid 0.5 per cent is injected i.p. (0.15 ml/10 g body weight) to 6 mice (NMRI, either sex weighing 20-25 g) pretreated with physiological saline (controls) and to 6 mice pretreated with test substance. In the controls acetic acid induces a syndrome characterized by contraction of abdomen, turning of trunk and extension of hind limbs. Saline and test substances are administered s.c. 30 min. before acetic acid. The number of writhings is counted 5-15 min. after injection of acetic acid.
The activity is expressed as per cent protection: [formula]
The effect of active substances is evaluated by a dose response curve, log dose on the abscissa, and per cent protection on the ordinate. The potency is expressed as the dose (ED50 in mg/kg giving 50 per cent protection against writhings.
This test is used as a screening test for analgesics. Additional results from other screening tests are required to exclude active anti-writhing substances without analgesic effect.

Compound: COc1cc(NC(=O)OCCCN2CCN(c3ccccc3Cl)CC2)cc(OC)c1OC.Cl [Example 3, 4-(2-Chlorophenyl)-1-[3-(3,4,5-trimethoxyphenylcarbamoyloxy)propyl]piperazine, hydrochloride]
- ED50: 12 mg/kg
